Experiments:
[1] = molecular target: T1, Adenosine receptor A3 (Homo sapiens, UniProt P0DMS8)
T1 sequence (P0DMS8 whole entry): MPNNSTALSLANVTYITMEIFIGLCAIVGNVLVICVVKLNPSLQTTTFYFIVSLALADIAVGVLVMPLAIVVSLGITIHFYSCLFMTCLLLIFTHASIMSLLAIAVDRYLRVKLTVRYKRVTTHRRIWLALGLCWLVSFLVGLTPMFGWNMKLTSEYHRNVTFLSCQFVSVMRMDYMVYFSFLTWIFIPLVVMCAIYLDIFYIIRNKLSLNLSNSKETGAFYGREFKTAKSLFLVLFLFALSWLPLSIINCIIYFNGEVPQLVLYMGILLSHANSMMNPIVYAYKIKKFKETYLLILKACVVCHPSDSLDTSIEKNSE

[2] = molecular target: T2, Gastrin/cholecystokinin type B receptor (Homo sapiens, UniProt P32239)
T2 sequence (P32239 whole entry): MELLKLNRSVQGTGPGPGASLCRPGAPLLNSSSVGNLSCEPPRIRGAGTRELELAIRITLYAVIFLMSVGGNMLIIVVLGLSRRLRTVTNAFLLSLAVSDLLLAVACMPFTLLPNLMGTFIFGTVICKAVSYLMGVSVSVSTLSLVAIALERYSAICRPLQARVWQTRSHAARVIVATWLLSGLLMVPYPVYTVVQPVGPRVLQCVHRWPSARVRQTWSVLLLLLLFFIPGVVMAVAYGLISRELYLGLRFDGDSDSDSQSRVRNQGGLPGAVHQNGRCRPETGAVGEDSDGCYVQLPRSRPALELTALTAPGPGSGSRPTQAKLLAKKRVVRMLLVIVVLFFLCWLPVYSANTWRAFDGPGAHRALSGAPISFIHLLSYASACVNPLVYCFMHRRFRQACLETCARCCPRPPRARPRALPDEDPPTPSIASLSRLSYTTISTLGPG

[3] = molecular target: T3, Progesterone receptor (Homo sapiens, UniProt P06401); assay type: functional
T3 sequence (P06401 whole entry): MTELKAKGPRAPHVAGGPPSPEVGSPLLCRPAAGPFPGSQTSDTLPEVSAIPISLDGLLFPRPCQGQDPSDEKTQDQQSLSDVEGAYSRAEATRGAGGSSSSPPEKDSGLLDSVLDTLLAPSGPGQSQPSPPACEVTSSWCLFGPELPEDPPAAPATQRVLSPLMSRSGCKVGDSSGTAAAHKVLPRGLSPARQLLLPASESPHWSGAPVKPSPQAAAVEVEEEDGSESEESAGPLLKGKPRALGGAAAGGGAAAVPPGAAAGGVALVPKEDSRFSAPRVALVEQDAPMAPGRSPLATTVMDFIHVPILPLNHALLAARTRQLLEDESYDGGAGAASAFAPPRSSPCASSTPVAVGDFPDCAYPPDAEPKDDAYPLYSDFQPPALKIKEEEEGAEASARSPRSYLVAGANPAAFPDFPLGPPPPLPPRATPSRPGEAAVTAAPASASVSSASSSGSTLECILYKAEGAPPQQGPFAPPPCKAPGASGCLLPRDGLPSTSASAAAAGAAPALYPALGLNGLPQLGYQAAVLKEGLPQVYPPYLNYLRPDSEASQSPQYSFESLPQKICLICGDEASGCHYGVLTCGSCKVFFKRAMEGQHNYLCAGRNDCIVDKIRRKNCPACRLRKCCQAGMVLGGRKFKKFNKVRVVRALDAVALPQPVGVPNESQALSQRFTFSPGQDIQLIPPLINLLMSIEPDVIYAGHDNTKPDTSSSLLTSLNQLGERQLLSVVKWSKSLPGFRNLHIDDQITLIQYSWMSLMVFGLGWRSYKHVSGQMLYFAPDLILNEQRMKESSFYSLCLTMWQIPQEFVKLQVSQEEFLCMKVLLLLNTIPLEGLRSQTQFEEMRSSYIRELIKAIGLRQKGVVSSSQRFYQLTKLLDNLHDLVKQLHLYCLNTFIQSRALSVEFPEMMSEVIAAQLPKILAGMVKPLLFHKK

[4] = molecular target: T4, Alpha-2C adrenergic receptor (Homo sapiens, UniProt P18825); assay type: functional
T4 sequence (P18825 whole entry): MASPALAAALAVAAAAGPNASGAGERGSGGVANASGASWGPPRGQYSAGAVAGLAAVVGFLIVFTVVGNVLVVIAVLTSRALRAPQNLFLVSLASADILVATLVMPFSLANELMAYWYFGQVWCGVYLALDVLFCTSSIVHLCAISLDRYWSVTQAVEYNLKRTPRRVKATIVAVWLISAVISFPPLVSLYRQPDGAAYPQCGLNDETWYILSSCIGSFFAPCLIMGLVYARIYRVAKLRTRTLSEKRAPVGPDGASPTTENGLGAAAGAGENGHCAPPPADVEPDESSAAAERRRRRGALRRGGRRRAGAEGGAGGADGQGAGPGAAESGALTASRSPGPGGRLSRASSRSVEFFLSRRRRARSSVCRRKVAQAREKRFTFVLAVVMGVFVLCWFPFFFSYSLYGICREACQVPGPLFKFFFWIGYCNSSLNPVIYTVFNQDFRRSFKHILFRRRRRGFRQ

[5] = molecular target: T5, Muscarinic acetylcholine receptor M2 (Homo sapiens, UniProt P08172); assay type: functional, cell-based
T5 sequence (P08172 whole entry): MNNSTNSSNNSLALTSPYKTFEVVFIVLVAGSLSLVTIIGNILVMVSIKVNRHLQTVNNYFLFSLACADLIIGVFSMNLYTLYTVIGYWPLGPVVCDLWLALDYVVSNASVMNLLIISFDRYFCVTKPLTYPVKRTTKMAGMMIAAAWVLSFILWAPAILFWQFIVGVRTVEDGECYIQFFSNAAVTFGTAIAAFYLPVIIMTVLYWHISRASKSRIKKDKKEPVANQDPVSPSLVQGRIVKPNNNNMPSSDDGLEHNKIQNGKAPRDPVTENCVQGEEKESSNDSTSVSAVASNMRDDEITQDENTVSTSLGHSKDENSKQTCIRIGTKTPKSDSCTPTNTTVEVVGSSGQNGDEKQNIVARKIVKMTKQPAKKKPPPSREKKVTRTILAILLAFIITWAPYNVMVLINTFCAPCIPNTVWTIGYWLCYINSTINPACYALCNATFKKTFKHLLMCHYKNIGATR

[6] = molecular target: Voltage-dependent L-type calcium channel subunit alpha-1C (Rattus norvegicus, UniProt P22002); assay type: functional
Sequence of Voltage-dependent L-type calcium channel subunit alpha-1C (P22002 whole entry): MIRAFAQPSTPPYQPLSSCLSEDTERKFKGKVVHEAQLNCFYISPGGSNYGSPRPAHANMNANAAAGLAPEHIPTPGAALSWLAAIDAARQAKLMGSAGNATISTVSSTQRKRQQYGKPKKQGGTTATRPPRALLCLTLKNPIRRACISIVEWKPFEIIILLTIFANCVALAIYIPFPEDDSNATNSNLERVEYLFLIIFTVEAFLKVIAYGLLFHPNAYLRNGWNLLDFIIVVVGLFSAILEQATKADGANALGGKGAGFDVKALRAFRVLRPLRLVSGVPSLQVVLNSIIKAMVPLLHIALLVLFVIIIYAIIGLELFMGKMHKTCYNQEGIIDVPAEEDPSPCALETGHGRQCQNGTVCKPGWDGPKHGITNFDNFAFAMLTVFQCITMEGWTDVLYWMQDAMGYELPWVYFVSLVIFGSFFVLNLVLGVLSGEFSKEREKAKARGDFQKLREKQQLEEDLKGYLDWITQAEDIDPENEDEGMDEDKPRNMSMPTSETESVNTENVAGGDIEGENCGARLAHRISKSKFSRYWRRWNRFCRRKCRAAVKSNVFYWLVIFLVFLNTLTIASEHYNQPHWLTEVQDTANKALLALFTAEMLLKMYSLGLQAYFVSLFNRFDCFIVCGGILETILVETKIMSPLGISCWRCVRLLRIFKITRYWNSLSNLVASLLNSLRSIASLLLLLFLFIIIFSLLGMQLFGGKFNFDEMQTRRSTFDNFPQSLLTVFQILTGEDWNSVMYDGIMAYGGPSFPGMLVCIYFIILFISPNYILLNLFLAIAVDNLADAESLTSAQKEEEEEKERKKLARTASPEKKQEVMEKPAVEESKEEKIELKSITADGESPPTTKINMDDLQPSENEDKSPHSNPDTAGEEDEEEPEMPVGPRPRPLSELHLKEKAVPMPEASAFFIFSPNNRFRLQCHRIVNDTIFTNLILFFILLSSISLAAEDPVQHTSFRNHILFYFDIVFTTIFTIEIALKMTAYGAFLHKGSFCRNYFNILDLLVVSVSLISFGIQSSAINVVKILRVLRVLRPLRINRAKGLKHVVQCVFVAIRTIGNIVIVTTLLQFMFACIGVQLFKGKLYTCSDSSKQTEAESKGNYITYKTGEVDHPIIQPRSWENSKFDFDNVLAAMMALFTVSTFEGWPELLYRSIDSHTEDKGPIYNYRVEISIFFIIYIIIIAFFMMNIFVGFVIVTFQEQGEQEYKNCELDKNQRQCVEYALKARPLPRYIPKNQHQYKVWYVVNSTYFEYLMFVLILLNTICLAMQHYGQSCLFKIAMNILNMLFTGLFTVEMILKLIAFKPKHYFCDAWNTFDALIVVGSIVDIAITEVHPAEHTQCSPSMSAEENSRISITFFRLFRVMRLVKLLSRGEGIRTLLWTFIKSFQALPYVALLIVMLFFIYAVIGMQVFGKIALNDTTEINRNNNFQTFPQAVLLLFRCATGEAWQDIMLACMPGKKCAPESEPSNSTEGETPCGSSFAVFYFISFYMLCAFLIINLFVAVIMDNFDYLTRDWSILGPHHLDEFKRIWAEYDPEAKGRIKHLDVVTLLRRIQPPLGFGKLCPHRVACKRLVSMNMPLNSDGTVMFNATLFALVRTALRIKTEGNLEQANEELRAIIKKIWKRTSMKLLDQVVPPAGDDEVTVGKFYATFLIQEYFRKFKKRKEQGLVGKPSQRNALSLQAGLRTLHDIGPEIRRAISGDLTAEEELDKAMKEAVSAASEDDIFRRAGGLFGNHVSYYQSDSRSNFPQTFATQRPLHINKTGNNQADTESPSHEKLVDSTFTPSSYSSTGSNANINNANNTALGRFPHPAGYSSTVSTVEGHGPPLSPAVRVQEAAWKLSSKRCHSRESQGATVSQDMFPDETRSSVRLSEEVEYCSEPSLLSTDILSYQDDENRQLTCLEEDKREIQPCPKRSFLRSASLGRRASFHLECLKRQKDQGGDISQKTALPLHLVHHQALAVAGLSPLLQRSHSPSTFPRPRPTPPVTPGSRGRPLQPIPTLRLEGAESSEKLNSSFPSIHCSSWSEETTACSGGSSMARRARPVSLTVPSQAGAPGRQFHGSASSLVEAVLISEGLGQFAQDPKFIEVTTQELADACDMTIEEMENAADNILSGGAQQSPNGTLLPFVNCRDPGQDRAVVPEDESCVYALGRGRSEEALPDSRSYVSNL
Also: assay procedure not described here.

Row | SMILES | AC50 [1] [µM] | AC50 [2] [µM] | AC50 [3] [µM] | AC50 [4] [µM] | AC50 [5] [µM] | AC50 [6] [µM]
1 | CS(=O)(=O)NC(=O)CCC/C=C\C[C@H]1C(=O)C[C@@H](O)[C@@H]1/C=C/[C@@H](O)COc1ccccc1 [SULPROSTONE] | > 30 | > 30 | > 30 | > 30 | > 30 | –
2 | O=C(C[S+]([O-])Cc1ccco1)NC/C=C\COc1cc(CN2CCCCC2)ccn1 (stereo not given) [LAFUTIDINE] | > 10 | – | > 10 | 2.6 | > 10 | > 10
3 | CCC1(C)CC(=O)NC1=O (stereo not given) [ETHOSUXIMIDE] | > 10 | – | > 10 | > 10 | > 10 | > 10
4 | CO/N=C(\C(=O)N[C@@H]1C(=O)N2C(C(=O)O)=C(CSc3nc(C)c(CC(=O)O)s3)CS[C@H]12)c1csc(N)n1 [CEFODIZIME] | > 30 | > 30 | > 30 | > 30 | > 30 | > 30
5 | CCN1C(=O)NC(c2ccccc2)C1=O (stereo not given) [ETHOTOIN] | 12 | > 30 | > 30 | > 30 | > 30 | –
6 | COC(=O)c1ccc2c(c1)NC(=O)/C2=C(\Nc1ccc(N(C)C(=O)CN2CCN(C)CC2)cc1)c1ccccc1 [NINTEDANIB] | > 30 | > 30 | > 30 | > 30 | > 30 | –
7 | CC(C)(C)NCC(O)COc1cccc2c1CC(O)C(O)C2 (stereo not given) [NADOLOL] | > 10 | – | > 10 | > 10 | > 10 | > 10
8 | CC(=O)N1CCN(c2ccc(OCC3COC(Cn4ccnc4)(c4ccc(Cl)cc4Cl)O3)cc2)CC1 (stereo not given) [KETOCONAZOLE] | 17.7 | – | > 10 | > 10 | – | > 10
9 | OCC(O)COc1ccc(Cl)cc1 (stereo not given) | > 10 | – | > 10 | > 10 | > 10 | > 10
10 | CC1CC(OC(=O)C(O)c2ccccc2)CC(C)(C)C1 (stereo not given) [CYCLANDELATE] | > 10 | – | > 30 | > 10 | > 10 | > 10
11 | CN1CCC(=C2c3ccccc3CC(=O)c3sccc32)CC1 [KETOTIFEN] | > 10 | – | > 10 | 6.45 | > 10 | > 10
12 | CC1=C(C(=O)O)N2C(=O)[C@@H](NC(=O)[C@H](N)C3=CCC=CC3)[C@H]2SC1 [CEPHRADINE] | 27 | > 30 | 22 | > 30 | > 30 | –
13 | CCC1(CC)C(=O)NC(=O)N(C)C1=O [METHARBITAL] | > 10 | – | > 10 | > 10 | > 10 | > 10
